According to patent US20140329912A1, “CONTRACEPTIVE COMPOSITIONS AND METHODS OF CONTRACEPTION” (INTEGRITY PHARMACEUTICALS, LLC, priority 2011, published 2014):

Key:
Sperms [1] = assay: Real-Time PCR Stress and Toxicity PathwayFinder RT2 Profiler array on treated sperm; type: cell-based, mice; conditions: 50 ppm
Procedure: (§1) Male BALB/c mice (12-16 week old) were euthanized by CO2-inhalation. The cauda epididymes was clipped and the upper portions of the vas deferens freed from surrounding tissue. Three-four cuts were made using scissors and forceps across the epididymes and several cuts along the length of the vas deferens. Sperm were allowed to swim out of the tissue. The dish was placed in a 5% CO2 incubator set at 37° C. for 10-15 minutes. The solution of sperm was diluted (50 μl sperm+450 μl complete medium) in Whittens/HCO3/BSA. Sperm was removed from the very top or sides of sperm drop to obtain the sperm with highest motility. The dish was then returned to the 5% CO2 incubator set at 37° C. to allow the sperm to capacitate for 1-3 hrs prior to use.
Sperms (10^4) were placed in 96-well plate in complete media and treated with n-propyl bromide (50 ppm) or phosphate buffered saline (control) and incubated for 10 minutes in a 5% CO2 incubator set at 37° C. The dish with sperm was then washed 3-times with phosphate buffered saline and returned to the 5% CO2 incubator set at 37° C. for a further 24 hours. Sperm were then collected by centrifugation and subjected to the Stress and Toxicity PathwayFinder™ RT^2 Profiler™ assay according to the manufacturer's instructions (SA Biosciences, Frederick, Md.). This PCR Array profiles the expression of 84 genes whose expression level is indicative of stress and toxicity. […] The array also includes genes representative of pathways activated by prolonged stress, which range from cell death by apoptosis or necrosis to growth arrest and senescence to proliferation and carcinogenesis.

Sperms [2] = assay: Toxicity screening: cell viability by MTS assay; type: cell-based, mice; conditions: for Average absorbance of cell-reduced MTS at 490 nm: average of trials 1-3; for Corrected average absorbance of cell-reduced MTS at 490 nm: culture media background subtracted
Procedure: as §1
In addition, cell viability with n-propyl bromide was measured by MTS assay (Promega, Madison, Wis.). MTS [3-(4,5-dimethylthiazol-2-yl)-5-(3-carboxymethoxyphenyl)-2-(4-sulfophenyl)-2H-tetrazolium, inner salt] was utilized according to the manufacturer's instructions. The culture growth medium consisted of Whittens-HEPES complete media, (pH 7.2-7.4) prepared and supplemented with 30 mM NaHCO3 and 10 mg/mL BSA (Bovine Serum Albumin, Sigma A0281, fatty acid free). 250 mL of Whittens-Hepes complete media includes 1461 mg of NaCl, 87.6 mg of KCl, 40.8 mg of KH2PO4, 36.1 mg of MgSO4, 247.8 mg of glucose (dextrose), 22.01 mg of pyruvic acid, 130.92 mg of lactic acid (hemi-Ca), and 1191.5 mg of HEPES. After treatments of the sperms, 30 μL of MTS solution was added to each well and pipetted up and down for ten times to ensure properly mixing and incubation was prolonged for 2 h at 37° C., 5% CO2.
Absorbance observations for trials 1-3 and calculated average are expressed as optical density. The absorbance of cell-reduced MTS was read at 490 nm on a spectrophotometer Spectra Max Plus 384, and optical density for absorbance readings is provided in Table II. Absorbance is directly proportional to the number of living cells in culture. Thus, a reduction in absorbance normalized to a control indicates toxicity to a cell. Background absorbance was measured for the culture media only in three trials. An average absorbance was calculated from the three trials. The average optical density for the three trials for the culture media (background) was then subtracted from the average optical density of the various concentration assays for n-propyl bromide (expressed in terms of ppm of n-propyl bromide). Three control trials using only phosphate buffered saline were also measured. The corrected, average optical density of each of the experimental assays was then compared to the corrected, average optical density of the control (PBS only) assays. The comparison is expressed as the percentage of MTS reduction relative to the normalized absorbance of control samples.

CCCBr [n-propyl bromide, 1-bromopropane]
cell death, necrosis, mutigencity, or DNA damage (PCR array, Table I) (Sperms [1]; a two-fold or greater change might be significant): no significant cell death, necrosis, mutigencity, or DNA damage was observed | Fold Change, gene APFA1 (Apoptotic peptidase activating factor 1) (Sperms [1]; APFA1, NM_001160, Apoptosis and Senescence, 10 minutes, washed, further 24 hours): −1.04 fold | Fold Change, gene ATM (Ataxia telangiectasia mutated) (Sperms [1]; ATM, NM_00051, Cell Cycle Control and DNA Damage Repair, 10 minutes, washed, further 24 hours): −1.01 fold | Fold Change, gene BAD (BCL2 associated agonist of cell death) (Sperms [1]; BAD, NM_004322, Apoptosis and Senescence, 10 minutes, washed, further 24 hours): −1.00 fold | Fold Change, gene BAX (BCL2 associated X protein) (Sperms [1]; BAX, NM_004324, Apoptosis and Senescence, 10 minutes, washed, further 24 hours): −1.25 fold | Fold Change, gene BCL2 (B-cell CLL/lymphoma 2) (Sperms [1]; BCL2, NM_000633, Apoptosis and Senescence, 10 minutes, washed, further 24 hours): −1.24 fold | Fold Change, gene BCL2L1 (BCL2-like 1) (Sperms [1]; BCL2L1, NM_138578, Apoptosis and Senescence, 10 minutes, washed, further 24 hours): −1.06 fold | Fold Change, gene BRCA1 (Breast cancer1, early onset) (Sperms [1]; BRCA1, NM_007294, Cell Cycle Control and DNA Damage Repair, 10 minutes, washed, further 24 hours): −1.23 fold | Fold Change, gene CASP8 (Caspase 8, apoptosis related cysteine peptidase) (Sperms [1]; CASP8, NM_001228, Apoptosis and Senescence, 10 minutes, washed, further 24 hours): −1.57 fold | Fold Change, gene CCNE1 (Cyclin E1) (Sperms [1]; CCNE1, NM_001238, Cell Cycle Control and DNA Damage Repair, 10 minutes, washed, further 24 hours): −1.06 fold | Fold Change, gene CDC25A (Cell division cycle 25, homolog A) (Sperms [1]; CDC25A, NM_001789, Cell Cycle Control and DNA Damage Repair, 10 minutes, washed, further 24 hours): −1.04 fold | Fold Change, gene CDK4 (Cyclin-dependent kinase 4) (Sperms [1]; CDK4, NM_000075, Cell Cycle Control and DNA Damage Repair, 10 minutes, washed, further 24 hours): −1.04 fold | Fold Change, gene CDKN2A (Cyclin dependent kinase inhibitor 2A) (Sperms [1]; CDKN2A, NM_000077, Cell Cycle Control and DNA Damage Repair, 10 minutes, washed, further 24 hours): −1.05 fold | Fold Change, gene CDKNA1 (Cyclin dependent kinase inhibitor 1A) (Sperms [1]; CDKNA1, NM_000389, Cell Cycle Control and DNA Damage Repair, 10 minutes, washed, further 24 hours): −1.25 fold | Fold Change, gene CFLAR (CASP8 & FADD like apoptosis regulator) (Sperms [1]; CFLAR, NM_003879, Apoptosis and Senescence, 10 minutes, washed, further 24 hours): −1.11 fold | Fold Change, gene CHEK2 (CHk2, Checkpoint homolog) (Sperms [1]; CHEK2, NM_007194, Cell Cycle Control and DNA Damage Repair, 10 minutes, washed, further 24 hours): −1.02 fold | Fold Change, gene E2F1 (E2F transcription factor 1) (Sperms [1]; E2F1, NM_005225, Cell Cycle Control and DNA Damage Repair, 10 minutes, washed, further 24 hours): −1.17 fold | Fold Change, gene GZMA (Granzyme A) (Sperms [1]; GZMA, NM_006144, Apoptosis and Senescence, 10 minutes, washed, further 24 hours): −1.26 fold | Fold Change, gene HTATIP2 (HIV-1 tat interactive protein 2) (Sperms [1]; HTATIP2, NM_006410, Apoptosis and Senescence, 10 minutes, washed, further 24 hours): −1.38 fold | Fold Change, gene MDM2 (MDM2 p53 binding protein homolog) (Sperms [1]; MDM2, NM_002392, Cell Cycle Control and DNA Damage Repair, 10 minutes, washed, further 24 hours): −1.32 fold | Fold Change, gene RB1 (Retinoblastoma 1) (Sperms [1]; RB1, NM_000321, Cell Cycle Control and DNA Damage Repair, 10 minutes, washed, further 24 hours): −1.30 fold | Fold Change, gene S100A4 (S100 calcium binding protein A4) (Sperms [1]; S100A4, NM_002961, Cell Cycle Control and DNA Damage Repair, 10 minutes, washed, further 24 hours): −1.15 fold | Fold Change, gene TERT (Telomerase reverse transcriptase) (Sperms [1]; TERT, NM_198253, Apoptosis and Senescence, 10 minutes, washed, further 24 hours): −1.16 fold | Fold Change, gene TNFRS1A (Tumor necrosis factor receptor super family member 1A) (Sperms [1]; TNFRS1A, NM_001065, Apoptosis and Senescence, 10 minutes, washed, further 24 hours): −1.36 fold | Fold Change, gene TNFRSF10B (Tumor necrosis factor receptor super family member 10b) (Sperms [1]; TNFRSF10B, NM_003842, Apoptosis and Senescence, 10 minutes, washed, further 24 hours): −1.33 fold | Fold Change, gene TNFRSF25 (Tumor necrosis factor receptor super family member 25) (Sperms [1]; TNFRSF25, NM_003790, Apoptosis and Senescence, 10 minutes, washed, further 24 hours): −1.15 fold | Fold Change, gene TP53 (Tumor protein p53) (Sperms [1]; TP53, NM_000546, Cell Cycle Control and DNA Damage Repair, 10 minutes, washed, further 24 hours): −1.06 fold | % of control (MTS reduction relative to PBS only control) (Sperms [2]; 0.1 ppm): 90% | Absorbance of cell-reduced MTS at 490 nm, Trial 1 (Sperms [2]; 0.1 ppm): 0.2 optical density | Absorbance of cell-reduced MTS at 490 nm, Trial 2 (Sperms [2]; 0.1 ppm): 0.1 optical density | Absorbance of cell-reduced MTS at 490 nm, Trial 3 (Sperms [2]; 0.1 ppm): 0.3 optical density | Average absorbance of cell-reduced MTS at 490 nm (Sperms [2]; 0.1 ppm): 0.2 optical density | Corrected average absorbance of cell-reduced MTS at 490 nm (Sperms [2]; 0.1 ppm): 0.0 optical density | % of control (MTS reduction relative to PBS only control) (Sperms [2]; 1 ppm): 100% | Absorbance of cell-reduced MTS at 490 nm, Trial 1 (Sperms [2]; 1 ppm): 0.2 optical density | Absorbance of cell-reduced MTS at 490 nm, Trial 2 (Sperms [2]; 1 ppm): 0.4 optical density | Absorbance of cell-reduced MTS at 490 nm, Trial 3 (Sperms [2]; 1 ppm): 0.1 optical density | Average absorbance of cell-reduced MTS at 490 nm (Sperms [2]; 1 ppm): 0.2 optical density | Corrected average absorbance of cell-reduced MTS at 490 nm (Sperms [2]; 1 ppm): 0.1 optical density | % of control (MTS reduction relative to PBS only control) (Sperms [2]; 5 ppm): 100% | Absorbance of cell-reduced MTS at 490 nm, Trial 1 (Sperms [2]; 5 ppm): 0.2 optical density
